Some test systems named below: NCI/ADR-RES; CAKI-1; BT-549; OVCAR-8; SNB-19; TK-10; NCI-H460; DU-145; SF-295; SR; ACHN; HCT-15; MOLT-4; SN12C; SK-MEL-2; OVCAR-3; SNB-75; UACC-62; IGROV-1.
What all share (test): inhibition of tumour cell growth, NCI panel, 48 h

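Protocol summary: plate cells (96-well), add compound at 5 concentrations, incubate 48 h, interpolate endpoints linearly. Here, GI50 denotes the concentration required for 50% inhibition of growth.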 Activity calls are given as the source filed them. Cut-off read from the data, not from the text of the source: active = GI50 up to about 1.1 µM and inactive = higher. Peptide text beside a SMILES is read from it. * marks the point of attachment. Boc = CC(C)(C)OC(=O)*; OBn = c1ccc(CO*)cc1 Some results are limits rather than exact numbers.

`O=C(c1ccc2ccccc2c1)C1S(=O)(=O)OCCOS1(=O)=O`: the GI50 in the assay on NCI/ADR-RES, in the assay on CAKI-1, with BT-549, with OVCAR-8, in the assay with SNB-19 and with TK-10 was > 100 µM (inactive) in each case. Moreover, the GI50 in the assay with NCI-H460 was > 100 µM (inactive); with DU-145, > 100 µM (inactive); in the assay on SF-295, > 100 µM (inactive); in the assay with SR it was > 100 µM (inactive); in the assay with ACHN, > 100 µM (inactive); with HCT-15 it was > 100 µM. The GI50 in the assay on MOLT-4, in the assay with SN12C, with SK-MEL-2 and in the assay with OVCAR-3 was > 100 µM (inactive) throughout.
Turning to `CC(NC(=O)Cc1ccccc1)NC(=O)C(C)C(=O)Nc1ccccc1` (configuration not stated), the GI50 was > 100 µM (inactive) in the assay with NCI/ADR-RES; 66.5 µM (inactive) in the assay on CAKI-1; 43.5 µM (inactive) in the assay with BT-549; 34.8 µM (inactive) in the assay on OVCAR-8; 24 µM (inactive) with SNB-19; 33.3 µM (inactive) in the assay with TK-10. Moreover, the GI50 with NCI-H460 is > 100 µM (inactive); in the assay on DU-145 it was > 100 µM (inactive); with SF-295 it was > 100 µM (inactive); with SR it was > 100 µM (inactive); with ACHN it was 41.6 µM (inactive); in the assay with HCT-15, > 100 µM. The GI50 was > 100 µM (inactive) in the assay on MOLT-4; 24 µM (inactive) in the assay on SNB-75; 36.1 µM (inactive) in the assay with SN12C; > 100 µM (inactive) with SK-MEL-2; > 100 µM (inactive) with UACC-62; 61.5 µM (inactive) in the assay on IGROV-1.
As to `O=C(O)/C(=C/C(=O)c1ccc(Cl)cc1)NNc1ccc([N+](=O)[O-])cc1[N+](=O)[O-]`, the GI50 is 45.8 µM (inactive) in the assay with NCI/ADR-RES; 24.8 µM (inactive) in the assay with CAKI-1; 23.2 µM (inactive) in the assay on BT-549; 29.5 µM (inactive) in the assay on OVCAR-8; 43.4 µM (inactive) with SNB-19; 57.5 µM (inactive) in the assay on TK-10. Moreover, the GI50 in the assay with NCI-H460 is 34.3 µM (inactive); in the assay with DU-145, 47.2 µM (inactive); with SF-295, 41.4 µM (inactive); in the assay with SR, 50.9 µM (inactive); in the assay with ACHN it was 31.8 µM (inactive); in the assay on HCT-15, 48.3 µM. The GI50 with MOLT-4 is 42 µM (inactive); in the assay with SN12C, 41.8 µM (inactive); with SK-MEL-2, 31.7 µM (inactive); with OVCAR-3 it was 33.3 µM (inactive); in the assay on UACC-62, 38.7 µM (inactive); with IGROV-1, 66.7 µM (inactive).
`CC(C)(C)OC(=O)N(CCCN)CCCCN`: the GI50 in the assay on NCI/ADR-RES, with CAKI-1, in the assay with BT-549, in the assay with OVCAR-8, in the assay on SNB-19 and with TK-10 was > 100 µM (inactive) in each case. Besides, the GI50 in the assay with NCI-H460 was > 100 µM (inactive); in the assay on DU-145 it was > 100 µM (inactive); in the assay on SF-295 it was > 100 µM (inactive); with SR it was > 100 µM (inactive); in the assay on ACHN, > 100 µM (inactive); with HCT-15, > 100 µM. Moreover, the GI50 in the assay on MOLT-4, in the assay with SN12C, in the assay with SK-MEL-2, in the assay with OVCAR-3, in the assay on UACC-62 and in the assay with IGROV-1 was > 100 µM (inactive) each time.
Turning to `CC(C)CC(NC(=O)OC(C)(C)C)C(=O)NC(CC(=O)OCc1ccccc1)C(N)=O` (stereo not drawn) (Boc-Leu-Asp(OBn)-NH2; configuration not given here), the GI50 in the assay on NCI/ADR-RES, with CAKI-1, with BT-549, with OVCAR-8, in the assay with SNB-19 and in the assay with TK-10 was > 100 µM (inactive) each time. The GI50 with DU-145 is > 100 µM (inactive); in the assay on SF-295 it was > 100 µM (inactive); in the assay with SR, > 100 µM (inactive); in the assay with ACHN, > 100 µM (inactive); with HCT-15, > 100 µM; in the assay with SNB-75, 17.3 µM (inactive). Moreover, the GI50 in the assay on SN12C, in the assay on SK-MEL-2, in the assay with OVCAR-3, with UACC-62 and with IGROV-1 was > 100 µM (inactive) in each case.
Consider `COc1cc2c(cc1OC)C13CC[N+]4(C)CC5=CCOC6CC(=O)N2C1C6C5CC34[O-]` (configuration not stated), for which the GI50 in the assay with NCI/ADR-RES, in the assay with CAKI-1, in the assay on BT-549, in the assay with OVCAR-8, with SNB-19 and with TK-10 was > 100 µM (inactive) throughout. The GI50 in the assay on NCI-H460 was > 100 µM (inactive); with DU-145, > 100 µM (inactive); with SF-295, > 100 µM (inactive); in the assay with SR it was > 100 µM (inactive); in the assay on ACHN, > 100 µM (inactive); in the assay on HCT-15 it was > 100 µM. Also, the GI50 with MOLT-4, in the assay with SNB-75, in the assay on SN12C, in the assay on OVCAR-3, in the assay on UACC-62 and with IGROV-1 was > 100 µM (inactive) in each case.
With `O=C1OC(CS(=O)(=O)c2ccccc2)CC1O` (configuration not stated), the GI50 in the assay with NCI/ADR-RES is > 100 µM (inactive); in the assay with CAKI-1, > 100 µM (inactive); in the assay on BT-549, 72.8 µM (inactive); in the assay on OVCAR-8, > 100 µM (inactive); with SNB-19, > 100 µM (inactive); in the assay with TK-10, > 100 µM (inactive). In addition, the GI50 is > 100 µM (inactive) in the assay on NCI-H460; > 100 µM (inactive) with DU-145; > 100 µM (inactive) in the assay on SF-295; > 100 µM (inactive) in the assay with SR; > 100 µM (inactive) in the assay on ACHN; > 100 µM with HCT-15. Further, the GI50 in the assay on MOLT-4 is > 100 µM (inactive); in the assay on SN12C, > 100 µM (inactive); in the assay on SK-MEL-2, > 100 µM (inactive); with OVCAR-3, > 100 µM (inactive); in the assay with UACC-62 it was 41 µM (inactive); with IGROV-1, > 100 µM (inactive).
`COc1cc(C2S/C(=C/c3ccccc3)C(=O)N2Cc2ccccc2)cc(OC)c1OC` (configuration not stated): the GI50 in the assay with NCI/ADR-RES was 26.4 µM (inactive); in the assay with CAKI-1, 36.8 µM (inactive); in the assay with BT-549, 54.5 µM (inactive); with OVCAR-8 it was 37.6 µM (inactive); in the assay on SNB-19, 57.9 µM (inactive); in the assay on TK-10, > 100 µM (inactive). Further, the GI50 in the assay with DU-145 was 47 µM (inactive); in the assay on SF-295 it was 28.5 µM (inactive); with SR it was 20 µM (inactive); in the assay on ACHN, 64.7 µM (inactive); in the assay on HCT-15, 40.1 µM; with MOLT-4, 18.4 µM (inactive). Moreover, the GI50 is 18.5 µM (inactive) with SNB-75; 39.2 µM (inactive) in the assay on SN12C; 39.1 µM (inactive) with SK-MEL-2; 23.5 µM (inactive) with UACC-62; 42.2 µM (inactive) in the assay with IGROV-1.
Consider `CCOC(=O)c1c(N2CCN(C)CC2)[nH]c(=O)c(C(c2c(Cl)cccc2Cl)c2c(O)c(C(=O)OCC)c(N3CCN(C)CC3)[nH]c2=O)c1O`, for which the GI50 in the assay with NCI/ADR-RES is 71.1 µM (inactive); with CAKI-1, 26.5 µM (inactive); with BT-549, 20.6 µM (inactive); in the assay on OVCAR-8, 22 µM (inactive); in the assay with SNB-19, 20.4 µM (inactive); in the assay with TK-10 it was 30.5 µM (inactive). Further, the GI50 in the assay with NCI-H460 is 28.1 µM (inactive); in the assay with DU-145, 17.8 µM (inactive); in the assay with SF-295, 28.1 µM (inactive); with SR, 21.9 µM (inactive); with ACHN, 20.7 µM (inactive); in the assay on HCT-15 it was 30.7 µM. For the same compound, the GI50 is 23.5 µM (inactive) with MOLT-4; 26.3 µM (inactive) in the assay on SN12C; 26 µM (inactive) in the assay on SK-MEL-2; 34.8 µM (inactive) in the assay with OVCAR-3; 21.5 µM (inactive) in the assay with UACC-62; 20.7 µM (inactive) with IGROV-1.
As to `CC(=O)c1nc2ccccc2n1CC(=O)c1ccc([N+](=O)[O-])cc1`, the GI50 is 13.4 µM (inactive) in the assay with NCI/ADR-RES; 17.4 µM (inactive) with CAKI-1; 12.6 µM (inactive) in the assay on BT-549; 8.49 µM (inactive) in the assay on OVCAR-8; 13.5 µM (inactive) in the assay with SNB-19; 42.5 µM (inactive) in the assay with TK-10. In addition, the GI50 is 5.74 µM (inactive) in the assay with NCI-H460; 31.6 µM (inactive) with DU-145; 17.7 µM (inactive) with SF-295; 7.45 µM (inactive) in the assay with SR; 42.3 µM with HCT-15; 5.52 µM (inactive) in the assay on MOLT-4. For the same compound, the GI50 was 35.3 µM (inactive) in the assay on SNB-75; 17.8 µM (inactive) with SN12C; 13.5 µM (inactive) with OVCAR-3; 10 µM (inactive) in the assay with UACC-62; 3.12 µM (inactive) with IGROV-1.
Consider `CCCC(=O)Nc1cc(/C=C/C(=O)N2CC(CCl)c3ccc([N+](=O)[O-])cc32)n(C)c1` (configuration not stated), for which the GI50 was 30.7 µM (inactive) with NCI/ADR-RES; 57.5 µM (inactive) with CAKI-1; 4.07 µM (inactive) in the assay with BT-549; 30.3 µM (inactive) with OVCAR-8; > 100 µM (inactive) with SNB-19; 20 µM (inactive) in the assay on TK-10. Further, the GI50 with DU-145 was > 100 µM (inactive); with SF-295 it was 44.1 µM (inactive); with SR, > 100 µM (inactive); in the assay on ACHN, 50.9 µM (inactive); in the assay with HCT-15 it was > 100 µM; in the assay on SNB-75, > 100 µM (inactive). Besides, the GI50 in the assay on SN12C is > 100 µM (inactive); with SK-MEL-2, > 100 µM (inactive); in the assay on OVCAR-3, > 100 µM (inactive); with UACC-62, > 100 µM (inactive); in the assay with IGROV-1 it was 65 µM (inactive).
